Laboratory results from the NIST ThermoML archive (doi:10.1016/j.jct.2017.03.032).

Assay: wn = mass fraction of the nth substance listed
Conditions: Gas, Burnett expansion method

F/C=C/C(F)(F)F [trans-1,3,3,3-tetrafluoropropene] + CC(C)C
Conditions	mass density [kg/m3]
280.17 K, 167.4 kPa, w1 = 0.7	6.7132
280.17 K, 218.3 kPa, w1 = 0.7	8.9087
280.18 K, 165.3 kPa, w1 = 0.65	6.4038
280.18 K, 215.5 kPa, w1 = 0.65	8.4982
280.18 K, 229.9 kPa, w1 = 0.8	10.1496
285.05 K, 159.8 kPa, w1 = 0.8	6.7596
285.06 K, 208.9 kPa, w1 = 0.8	8.9702
285.06 K, 266.4 kPa, w1 = 0.75	11.209
285.06 K, 272 kPa, w1 = 0.8	11.904
285.06 K, 290 kPa, w1 = 0.9	13.8805
285.08 K, 149.5 kPa, w1 = 0.65	5.6292
285.08 K, 195.5 kPa, w1 = 0.65	7.4702
285.08 K, 254.6 kPa, w1 = 0.65	9.9134
285.09 K, 151.9 kPa, w1 = 0.7	5.9363
285.09 K, 198.7 kPa, w1 = 0.7	7.8779
285.09 K, 258.7 kPa, w1 = 0.7	10.4543
290.16 K, 140.3 kPa, w1 = 0.75	5.5569
290.16 K, 183.7 kPa, w1 = 0.75	7.3743
290.16 K, 234.4 kPa, w1 = 0.7	9.1876
290.16 K, 239.9 kPa, w1 = 0.75	9.7861
290.17 K, 153.8 kPa, w1 = 0.9	6.9178
290.17 K, 201.4 kPa, w1 = 0.9	9.1804
290.17 K, 262.6 kPa, w1 = 0.9	12.1828
290.17 K, 304.8 kPa, w1 = 0.7	12.1924
290.17 K, 311.8 kPa, w1 = 0.75	12.9866
290.17 K, 340.7 kPa, w1 = 0.9	16.1673
290.18 K, 176 kPa, w1 = 0.65	6.5292
290.18 K, 179.5 kPa, w1 = 0.7	6.9229
290.18 K, 229.9 kPa, w1 = 0.65	8.6646
290.18 K, 299.2 kPa, w1 = 0.65	11.4985
290.19 K, 148.1 kPa, w1 = 0.85	6.3743
290.19 K, 193.9 kPa, w1 = 0.85	8.459
290.19 K, 252.9 kPa, w1 = 0.85	11.2256
290.19 K, 328.4 kPa, w1 = 0.85	14.8972
290.2 K, 188.8 kPa, w1 = 0.8	7.8842
290.2 K, 246.5 kPa, w1 = 0.8	10.4628
290.2 K, 320.1 kPa, w1 = 0.8	13.8847
295.18 K, 138.3 kPa, w1 = 0.9	6.0742
295.18 K, 181.5 kPa, w1 = 0.9	8.0608
295.18 K, 198.3 kPa, w1 = 0.65	7.2638
295.18 K, 258.7 kPa, w1 = 0.65	9.6394
295.18 K, 308.8 kPa, w1 = 0.9	14.1958
295.18 K, 336.3 kPa, w1 = 0.65	12.7921
295.18 K, 399.6 kPa, w1 = 0.9	18.8389
295.19 K, 151.4 kPa, w1 = 0.65	5.4735
295.19 K, 237.2 kPa, w1 = 0.9	10.6968
295.2 K, 160.8 kPa, w1 = 0.7	6.0421
295.2 K, 173.7 kPa, w1 = 0.85	7.366
295.2 K, 210.4 kPa, w1 = 0.7	8.0182
295.2 K, 227.4 kPa, w1 = 0.85	9.7751
295.2 K, 274.6 kPa, w1 = 0.7	10.6407
295.2 K, 296.4 kPa, w1 = 0.85	12.9722
295.2 K, 356.2 kPa, w1 = 0.7	14.1209
295.2 K, 384.1 kPa, w1 = 0.85	17.2147
295.21 K, 165.5 kPa, w1 = 0.75	6.4713
295.21 K, 216.7 kPa, w1 = 0.75	8.5879
295.21 K, 282.6 kPa, w1 = 0.75	11.3966
295.21 K, 366.4 kPa, w1 = 0.75	15.1241
295.22 K, 169.2 kPa, w1 = 0.8	6.8878
295.22 K, 221.5 kPa, w1 = 0.8	9.1405
295.22 K, 288.6 kPa, w1 = 0.8	12.13
295.22 K, 374 kPa, w1 = 0.8	16.0973
300.14 K, 198.5 kPa, w1 = 0.8	7.9893
300.14 K, 259.5 kPa, w1 = 0.8	10.6023
300.14 K, 337.5 kPa, w1 = 0.8	14.0697
300.16 K, 151.4 kPa, w1 = 0.8	6.02
300.16 K, 156.6 kPa, w1 = 0.85	6.5188
300.16 K, 205.4 kPa, w1 = 0.85	8.6508
300.16 K, 268.4 kPa, w1 = 0.85	11.4801
300.16 K, 348.9 kPa, w1 = 0.85	15.2347
300.16 K, 448.5 kPa, w1 = 0.85	20.2174
300.17 K, 466.4 kPa, w1 = 0.9	21.9125
300.18 K, 162.8 kPa, w1 = 0.9	7.0652
300.18 K, 213.3 kPa, w1 = 0.9	9.3759
300.18 K, 278.5 kPa, w1 = 0.9	12.4424
300.18 K, 361.8 kPa, w1 = 0.9	16.5116
300.19 K, 141.1 kPa, w1 = 0.65	4.9939
300.19 K, 147.4 kPa, w1 = 0.75	5.6247
300.19 K, 185.2 kPa, w1 = 0.65	6.6273
300.19 K, 193.2 kPa, w1 = 0.75	7.4643
300.19 K, 242.2 kPa, w1 = 0.65	8.7948
300.19 K, 252.7 kPa, w1 = 0.75	9.9055
300.19 K, 315.5 kPa, w1 = 0.65	11.6712
300.19 K, 328.9 kPa, w1 = 0.75	13.1452
300.19 K, 408.2 kPa, w1 = 0.65	15.4884
300.19 K, 425.4 kPa, w1 = 0.75	17.4445
300.21 K, 143.9 kPa, w1 = 0.7	5.2837
300.21 K, 188.7 kPa, w1 = 0.7	7.0118
300.21 K, 246.8 kPa, w1 = 0.7	9.3051
300.21 K, 321.3 kPa, w1 = 0.7	12.3484
300.21 K, 415.8 kPa, w1 = 0.7	16.3872
305.17 K, 185.5 kPa, w1 = 0.8	7.2959
305.17 K, 243 kPa, w1 = 0.8	9.6822
305.17 K, 316.9 kPa, w1 = 0.8	12.8488
305.17 K, 410.9 kPa, w1 = 0.8	17.0511
305.18 K, 145.2 kPa, w1 = 0.85	5.912
305.18 K, 169.9 kPa, w1 = 0.7	6.1677
305.18 K, 189.6 kPa, w1 = 0.85	7.8456
305.18 K, 249.6 kPa, w1 = 0.85	10.4115
305.18 K, 290.8 kPa, w1 = 0.7	10.8618
305.18 K, 325.5 kPa, w1 = 0.85	13.8167
305.18 K, 377.9 kPa, w1 = 0.7	14.4143
305.18 K, 420.8 kPa, w1 = 0.85	18.3356
305.18 K, 536.7 kPa, w1 = 0.85	24.3325
305.19 K, 181.1 kPa, w1 = 0.75	6.8373
305.19 K, 222.7 kPa, w1 = 0.7	8.1848
305.19 K, 237.2 kPa, w1 = 0.75	9.0735
305.19 K, 401.5 kPa, w1 = 0.75	15.9791
305.19 K, 487 kPa, w1 = 0.7	19.1285
305.2 K, 162.4 kPa, w1 = 0.65	5.6789
305.2 K, 212.9 kPa, w1 = 0.65	7.5363
305.2 K, 278.3 kPa, w1 = 0.65	10.001
305.2 K, 309.5 kPa, w1 = 0.75	12.0406
305.2 K, 361.8 kPa, w1 = 0.65	13.2721
305.2 K, 465.9 kPa, w1 = 0.65	17.6129
305.21 K, 150 kPa, w1 = 0.9	6.375
305.21 K, 196.9 kPa, w1 = 0.9	8.4599
305.21 K, 257.6 kPa, w1 = 0.9	11.2269
305.21 K, 335.6 kPa, w1 = 0.9	14.8987
305.21 K, 434.3 kPa, w1 = 0.9	19.7715
305.21 K, 557 kPa, w1 = 0.9	26.2379
310.09 K, 153.4 kPa, w1 = 0.7	5.4721
310.09 K, 569.4 kPa, w1 = 0.7	22.5217
310.1 K, 157.4 kPa, w1 = 0.8	6.0902
310.1 K, 201.9 kPa, w1 = 0.7	7.2614
310.1 K, 207.9 kPa, w1 = 0.8	8.082
310.1 K, 271.8 kPa, w1 = 0.75	10.3201
310.1 K, 272 kPa, w1 = 0.8	10.7254
310.1 K, 344.7 kPa, w1 = 0.7	12.7882
310.1 K, 354.2 kPa, w1 = 0.75	13.6955
310.1 K, 354.6 kPa, w1 = 0.8	14.233
310.1 K, 458.2 kPa, w1 = 0.8	18.8881
310.1 K, 459.6 kPa, w1 = 0.75	18.1746
310.1 K, 583 kPa, w1 = 0.75	24.1187
310.1 K, 583.3 kPa, w1 = 0.8	25.0653
310.11 K, 158.1 kPa, w1 = 0.75	5.86
310.11 K, 207.6 kPa, w1 = 0.75	7.7765
310.11 K, 446.6 kPa, w1 = 0.7	16.9702
310.12 K, 264.5 kPa, w1 = 0.7	9.6359
310.12 K, 493.5 kPa, w1 = 0.9	22.3926
310.13 K, 166 kPa, w1 = 0.85	6.6824
310.13 K, 172 kPa, w1 = 0.9	7.22
310.13 K, 225.6 kPa, w1 = 0.9	9.5815
310.13 K, 294.9 kPa, w1 = 0.9	12.7151
310.13 K, 337.1 kPa, w1 = 0.65	12.0235
310.13 K, 372.9 kPa, w1 = 0.85	15.6171
310.13 K, 383.7 kPa, w1 = 0.9	16.8736
310.13 K, 436.3 kPa, w1 = 0.65	15.9559
310.13 K, 556 kPa, w1 = 0.65	21.1744
310.13 K, 607.5 kPa, w1 = 0.85	27.5031
310.14 K, 196.8 kPa, w1 = 0.65	6.8271
310.14 K, 216.8 kPa, w1 = 0.85	8.8678
310.14 K, 258.2 kPa, w1 = 0.65	9.0598
310.14 K, 285 kPa, w1 = 0.85	11.7678
310.14 K, 479.8 kPa, w1 = 0.85	20.7246
310.15 K, 149.8 kPa, w1 = 0.65	5.1443
